This note sets out measurements from PMC9828493, “Design, Synthesis, and in Vitro Evaluation of 4‐(4‐Hydroxyphenyl)piperazine‐Based Compounds Targeting Tyrosinase” (Chemmedchem, 2022).

Where “and” joins values, the source holds several entries; their conditions need not be identical. Equal entries are not always repeated. Where only a bound is given, the exact number is not on record here.

Series [1] concerns the target T1, TYR from Agaricus bisporus (AbTYR) (Agaricus bisporus, UniProt C7FF04). Kind of series: Inhibition of diphenolase activity of AbTYR (L-DOPA as substrate).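 Note: absorbance measured spectrophotometrically with L-DOPA as substrate, inhibition expressed as percent relative to control sample, IC50 interpolated from dose-response curves.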 The settings on record: IC50 [μM]±SD, inhibition of diphenolase activity of AbTYR, L-DOPA substrate, three replicates.
Procedure: absorbance was measured after 60 or 1 min of incubation time in the reaction mixture containing
L-tyrosine or L-DOPA, respectively. The inhibitory activity was expressed as inhibition percentage
calculated by interpolation of the dose-response curves. Kojic acid [5-hydroxy-2-(hydroxymethyl)-
4H-pyran-4-one], a fungal secondary metabolite used as skin whitening agent, was employed as a
positive standard (10–50 μM). A spectrophotometer (Agilent Cary 60 UV-Vis Spectrophotometer)
The inhibition kinetics on the tyrosinase were studied using Lineweaver-Burk double reciprocal
plots. The reaction mixture consisted of four different concentrations of the substrate L-DOPA
(0.6–5 mM), and mushroom tyrosinase in phosphate buffer (0.05 M, pH 6.8). Three different
concentrations were used for the analysis. Preincubation and measurement time were the same
as discussed in mushroom tyrosinase inhibition assay. The Michaelis-Menten constant (Km) and
maximal velocity (Vmax) of tyrosinase were determined by Lineweaver-Burk plots.
In series [2] the target is T1, TYR from Agaricus bisporus (AbTYR). As to the kind of experiment: Inhibition of monophenolase activity of AbTYR (L-Tyr as substrate). It is filed as biochemical. Also on record: purchased Sigma Chemical Co. (St. Louis, MO, USA). As to conditions: 40 μM (Figure S69). On the procedure:
Mushroom tyrosinase inhibition assay
6.8). […] Subsequently, 0.05 mL of
L-tyrosine or L-DOPA, respectively.
respect to control sample.
positive standard (10–50 μM).
was used for absorbance measurements.
Kinetic analysis of the tyrosinase inhibition

Series [3] can be described thus: ABTS radical scavenging antioxidant assay. As to conditions: mean ± SD of three independent experiments. On the procedure:
ABTS [2,20‐azinobis‐(3‐ethylbenzothiazoline‐6‐sulfonic acid)] assay was used to determine the total free radical‐scavenging capacity of compounds. 6‐hydroxy‐2,5,7,8‐tetramethylchromane‐2‐carboxylic acid (Trolox) was used as the reference antioxidant.[15]
The ABTS⋅^+ method is based on the capacity of an antioxidant to scavenge the free ABTS⋅^+. To produce this radical an aqueous mixture of 7 mM ABTS with 2.45 mM potassium persulfate was required.
The ABTS solution was kept in the dark, at room temperature, for 24 h before use. The ABTS⋅^+ mixture was diluted, and each compound (10 μL) was added to solution. After 1 min of incubation the absorbance was recorded at 734 nm. Afterwards the decrease in A734 was calculated and referred to the Trolox standard curve. Antioxidant activity was expressed as concentration of the compound to give a 50 % reduction in the original absorbance (EC50).

Series [4] deals with B16F10 cells. As to the kind of experiment: Cell viability assay (MTT). It is filed as cell-based, Murine. The settings on record: 48 h, until a concentration of 10 μM. How it is done: Murine melanoma B16F10 cells (CRL‐6475) were cultured as previous reported.[17]
3‐(4,5‐Dimethylthiazol‐2‐yl)‐2,5‐diphenyltetrazolium bromide (MTT) was used to measure the cells viability. Cells were seeded in 96‐well plates for 24 hours with a density of 5x10^3 for well. Cells were then treated for 48 h with compounds (ranging from 4 μM to 100 μM). After incubation at 37 °C and 5 % of CO2, 100 μL of MTT reagent were added to the cells and incubated 3 h at 37 °C. After adding DMSO the absorbance was determined at 560 nm. The amount of living cells in treated samples relative to untreated controls (100 %) provided the cell viability. The mean value and standard deviation (SD) were calculated from triplicate experiments.
different concentrations of compounds (4-100 μM) and their viability was evaluated by MTT assay. Data
represent mean ± SD of triplicate experiments.

T1 sequence (C7FF04 1-392 limits assumed): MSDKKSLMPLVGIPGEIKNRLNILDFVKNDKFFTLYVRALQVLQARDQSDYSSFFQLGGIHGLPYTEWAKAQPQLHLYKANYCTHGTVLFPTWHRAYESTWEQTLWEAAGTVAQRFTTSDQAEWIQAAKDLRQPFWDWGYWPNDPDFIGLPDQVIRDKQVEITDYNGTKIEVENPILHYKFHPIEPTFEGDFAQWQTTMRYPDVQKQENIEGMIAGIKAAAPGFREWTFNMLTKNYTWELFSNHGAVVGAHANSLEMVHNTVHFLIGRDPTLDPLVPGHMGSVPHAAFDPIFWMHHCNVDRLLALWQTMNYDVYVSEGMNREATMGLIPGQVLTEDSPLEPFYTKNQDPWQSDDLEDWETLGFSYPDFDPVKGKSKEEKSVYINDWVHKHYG

One may read the IC50 as the concentration that inhibits the measured activity by half. A low value points to greater potency. Regarding `O=C(c1ccccc1)N1CCN(c2ccc(O)cc2)CC1` [compound 2, (4‐(4‐Hydroxyphenyl)piperazin‐1‐yl)(phenyl)methanone], 73.2 ± 3.5 µM corresponded to half-maximal inhibition in series [1] (IC50).

As for `O=C(c1ccc(-c2ccccc2)cc1)N1CCN(c2ccc(O)cc2)CC1` [compound 3, (4‐(4‐Hydroxyphenyl)piperazin‐1‐yl)(biphenyl‐4‐yl)methanone], the IC50 in series [1] stood at 128 ± 4.1 µM.

Usually melting point stands for the temperature, or range, at which the solid turns liquid. On to `O=C(c1ccccc1F)N1CCN(c2ccc(O)cc2)CC1` [compound 4, (4‐(4‐Hydroxyphenyl)piperazin‐1‐yl)(2‐fluorophenyl)methanone], for which the melting point was 142 to 143 °C. Moreover, the IC50 in series [1] stood at 15.2 ± 0.9 µM.

Compound `O=C(c1cccc(F)c1)N1CCN(c2ccc(O)cc2)CC1` [compound 5, (4‐(4‐Hydroxyphenyl)piperazin‐1‐yl)(3‐fluorophenyl)methanone] returned a melting point of 145 to 146 °C. The same compound came in with an IC50 in series [1] of 22.6 ± 1.3 µM.

In general, EC50 refers to the concentration needed to bring the measured effect to its halfway point. Read a high EC50 as a need for much substance. Take `O=C(c1ccccc1Cl)N1CCN(c2ccc(O)cc2)CC1` [compound 7, (4‐(4‐Hydroxyphenyl)piperazin‐1‐yl)(2‐chlorophenyl)methanone]: the melting point is 169 to 170 °C. Also, in series [1], the IC50 is < 5 µM and 2.6 µM. The “inhibitory effect on monophenolase activity of AbTYR” value (from here on “inhibitory effect”) in series [2] is “active inhibitors”. Further, the midpoint of the response in series [3], the EC50, lay at 13.2 ± 0.5 µM. Besides, the “cytotoxic effect (MTT)” value in series [4] was “no cytotoxic effect”.

`O=C(c1cccc(Cl)c1)N1CCN(c2ccc(O)cc2)CC1` [compound 8, (4‐(4‐Hydroxyphenyl)piperazin‐1‐yl)(3‐chlorophenyl)methanone] showed a melting point of 138 to 139 °C. The IC50 in series [1] turned out to be 9 ± 1 µM.

`O=C(c1ccc(Cl)cc1)N1CCN(c2ccc(O)cc2)CC1` [compound 9, (4‐(4‐Hydroxyphenyl)piperazin‐1‐yl)(4‐chlorophenyl)methanone] gave an IC50 in series [1] of 8.9 ± 0.9 µM.

`O=C(c1ccccc1Br)N1CCN(c2ccc(O)cc2)CC1` [compound 11, (4‐(4‐Hydroxyphenyl)piperazin‐1‐yl)(2‐bromophenyl)methanone] registered a melting point of 180 to 181 °C. The IC50 in series [1] was < 5 µM and 4.5 µM. The “inhibitory effect” value in series [2] is on record as “active inhibitors”. This compound returned an EC50 in series [3] of 13.2 ± 1.1 µM. Also, the “cytotoxic effect (MTT)” value in series [4] is “no cytotoxic effect”.

`O=C(c1cccc(Br)c1)N1CCN(c2ccc(O)cc2)CC1` [compound 12, (4‐(4‐Hydroxyphenyl)piperazin‐1‐yl)(3‐bromophenyl)methanone] returned an IC50 in series [1] of 16.4 ± 1.9 µM.

Take `O=C(c1ccc(Br)cc1)N1CCN(c2ccc(O)cc2)CC1` [compound 13, (4‐(4‐Hydroxyphenyl)piperazin‐1‐yl)(4‐bromophenyl)methanone]: the melting point fell in the range of 190 to 191 °C. The IC50 in series [1] was 39.6 ± 0.9 µM.

For the compound `Cc1ccccc1C(=O)N1CCN(c2ccc(O)cc2)CC1` [compound 14, [4‐(4‐Hydroxyphenyl)piperazin‐1‐yl](2‐methylphenyl)methanone], the melting point is 127 to 128 °C. The IC50 in series [1] worked out at 29.9 ± 2 µM.

Turning to `Cc1cccc(C(=O)N2CCN(c3ccc(O)cc3)CC2)c1` [compound 15, [4‐(4‐Hydroxyphenyl)piperazin‐1‐yl](3‐methylphenyl)methanone], the melting point is 155 to 156 °C. In series [1], this compound showed a half-maximal inhibitory concentration (IC50) of 31.7 ± 0.5 µM.

`Cc1ccc(C(=O)N2CCN(c3ccc(O)cc3)CC2)cc1` [compound 16, [4‐(4‐Hydroxyphenyl)piperazin‐1‐yl](4‐methylphenyl)methanone] returned a melting point of 162 to 163 °C. In series [1], this compound registered an IC50 of 34.4 ± 0.5 µM.

In turn, `O=C(c1ccccc1C(F)(F)F)N1CCN(c2ccc(O)cc2)CC1` [compound 17, (4‐(4‐Hydroxyphenyl)piperazin‐1‐yl)(2‐(trifluoromethyl)phenyl)methanone] gave a melting point of 152 to 153 °C. In series [1], this compound gave a 50% inhibitory concentration (IC50) of 4.6 ± 0.3 µM. Moreover, the “inhibitory effect” value in series [2] is given as “active inhibitors”. In series [3], this compound showed an EC50 of 9 ± 0.9 µM. The “cytotoxic effect (MTT)” value in series [4] is on record as “no cytotoxic effect”.

`O=C(c1cccc(C(F)(F)F)c1)N1CCN(c2ccc(O)cc2)CC1` [compound 18, (4‐(4‐Hydroxyphenyl)piperazin‐1‐yl)(3‐(trifluoromethyl)phenyl)methanone] yielded a melting point of 127 to 128 °C. 5.5 ± 0.2 µM corresponded to half-maximal inhibition in series [1] (IC50).

For `O=C(c1ccc(C(F)(F)F)cc1)N1CCN(c2ccc(O)cc2)CC1` [compound 19, (4‐(4‐Hydroxyphenyl)piperazin‐1‐yl)(4‐(trifluoromethyl)phenyl)methanone], the melting point fell in the range of 201 to 202 °C. Moreover, the IC50 in series [1] came out at 35.1 ± 0.5 µM.

Regarding `O=C(c1ccc(C(F)(F)F)cc1C(F)(F)F)N1CCN(c2ccc(O)cc2)CC1` [compound 20, (4‐(4‐Hydroxyphenyl)piperazin‐1‐yl)(2,4‐bis(trifluoromethyl)phenyl)methanone], the melting point is 194 to 195 °C. Further, 18.2 ± 2.4 µM corresponded to half-maximal inhibition in series [1] (IC50).

The compound `COc1cccc(C(=O)N2CCN(c3ccc(O)cc3)CC2)c1` [compound 22, [4‐(4‐Hydroxyphenyl)piperazin‐1‐yl](3‐methoxyphenyl)methanone] gave a half-maximal inhibitory concentration (IC50) in series [1] of 9.8 ± 0.4 µM.

`COc1ccc(C(=O)N2CCN(c3ccc(O)cc3)CC2)cc1` [compound 23, [4‐(4‐Hydroxyphenyl)piperazin‐1‐yl](4‐methoxyphenyl)methanone] came in with a melting point of 177 to 178 °C. Half-maximal inhibition in series [1] (IC50) was put at 14.9 ± 0.7 µM.

Consider `COc1ccc(C(=O)N2CCN(c3ccc(O)cc3)CC2)c(OC)c1` [compound 24, [4‐(4‐Hydroxyphenyl)piperazin‐1‐yl](2,4‐dimethoxyphenyl)methanone], for which 16.7 ± 2 µM corresponded to half-maximal inhibition in series [1] (IC50).

With `O=C(c1ccc(F)cc1F)N1CCN(c2ccc(O)cc2)CC1` [compound 25, (4‐(4‐Hydroxyphenyl)piperazin‐1‐yl)(2,4‐difluorophenyl)methanone], the melting point was 180 to 181 °C. The compound also showed an IC50 in series [1] of 17.5 ± 1.3 µM.

The compound `O=C(c1ccc(Br)cc1Br)N1CCN(c2ccc(O)cc2)CC1` [compound 26, (4‐(4‐Hydroxyphenyl)piperazin‐1‐yl)(2,4‐dibromophenyl)methanone] had a melting point of 176 to 177 °C. This compound returned an IC50 in series [1] of 9.5 ± 0.3 µM.

Regarding `Cc1ccc(C(=O)N2CCN(c3ccc(O)cc3)CC2)c(C)c1` [compound 27, [4‐(4‐Hydroxyphenyl)piperazin‐1‐yl](2,4‐dimethylphenyl)methanone], the melting point was 164 to 165 °C. Also, in series [1], the IC50 was 33.7 ± 0.7 µM.

`O=C(c1ccccc1[N+](=O)[O-])N1CCN(c2ccc(O)cc2)CC1` [compound 28, (4‐(4‐hydroxyphenyl)piperazin‐1‐yl)(2‐nitrophenyl)methanone] gave a melting point of 184 to 185 °C. In series [1], this compound came in with a half-maximal inhibitory concentration (IC50) of 7.4 ± 0.7 µM.

With `O=C(c1cccc([N+](=O)[O-])c1)N1CCN(c2ccc(O)cc2)CC1` [compound 29, (4‐(4‐Hydroxyphenyl)piperazin‐1‐yl)(3‐nitrophenyl)methanone], the IC50 in series [1] worked out at 21.8 ± 1.2 µM.

As to `O=C(c1ccc([N+](=O)[O-])cc1)N1CCN(c2ccc(O)cc2)CC1` [compound 30, (4‐(4‐Hydroxyphenyl)piperazin‐1‐yl)(4‐nitrophenyl)methanone], the melting point is 157 to 158 °C. In addition, the IC50 in series [1] is 23.2 ± 1.5 µM.

The compound `O=C(c1ccc([N+](=O)[O-])cc1[N+](=O)[O-])N1CCN(c2ccc(O)cc2)CC1` [compound 31, (4‐(4‐Hydroxyphenyl)piperazin‐1‐yl)(2,4‐dinitrophenyl)methanone] registered a melting point of 225 to 226 °C. Besides, half-maximal inhibition in series [1] (IC50) required 7.6 ± 0.05 µM.

Compound `Nc1ccccc1C(=O)N1CCN(c2ccc(O)cc2)CC1` [compound 32, (4‐(4‐Hydroxyphenyl)piperazin‐1‐yl)(2‐aminophenyl)methanone] returned an IC50 in series [1] of 66.4 ± 2.1 µM.

Compound `Nc1cccc(C(=O)N2CCN(c3ccc(O)cc3)CC2)c1` [compound 33, (4‐(4‐Hydroxyphenyl)piperazin‐1‐yl)(3‐aminophenyl)methanone] returned a melting point of 95 to 96 °C. This compound also yielded an IC50 in series [1] of 35.7 ± 1.05 µM.

For the compound `Nc1ccc(C(=O)N2CCN(c3ccc(O)cc3)CC2)cc1` [compound 34, (4‐(4‐Hydroxyphenyl)piperazin‐1‐yl)(4‐aminophenyl)methanone], the melting point fell in the range of 94 to 95 °C. For the same compound, 43.9 ± 3.4 µM corresponded to half-maximal inhibition in series [1] (IC50).

Compound `Nc1ccc(C(=O)N2CCN(c3ccc(O)cc3)CC2)c(N)c1` [compound 35, (4‐(4‐Hydroxyphenyl)piperazin‐1‐yl)(2,4‐diaminophenyl)methanone] came in with a melting point of 80 to 81 °C. This compound also displayed an IC50 in series [1] of 82.4 ± 1.1 µM.
